A value given as a limit tells only on which side of the number the result lay.

Common to all, as to format: functional
Test [1] is filed under the species Mus musculus. Nature of the test: Inhibitory dose required against angiogenesis (carmine content) tested for antiinflammatory activity in mice(parentheses value represents 95% confidence limits). The following applies: read-out: ID50 (the source's name).
The species entered for test [2] is Mus musculus. Nature of the test: Inhibitory dose required against exudation (pouch fluid weight) tested for antiinflammatory activity in mice(parentheses value represents 95% confidence limits). The following applies: read-out: ID50 (the source's name).
The species named for test [3] is Mus musculus. Nature of the test: Inhibitory dose required against granuloma formation tested for antiinflammatory activity in mice(parentheses value represents 95% confidence limits). To be noted: read-out: ID50 (the source's name).
The test system of test [4] is Mus musculus. Nature of the test: Inhibitory effect on inflammatory process III (angiogenesis: carmine content) at a log dose of -6mol/kg, ip relative to hydrocortisone on adjuvant-induced air-pouch granulomas of mice.
In test [5] the test system is Mus musculus. Nature of the test: Inhibitory effect on inflammatory process IV (granuloma formation) at a log dose of -5.25mol/kg, ip relative to hydrocortisone on adjuvant-induced air-pouch granulomas of mice.
Test [6] has as its system Mus musculus. Nature of the test: Inhibitory effect on inflammatory process IV (granuloma formation) at a log dose of -5.6mol/kg, ip relative to hydrocortisone on adjuvant-induced air-pouch granulomas of mice.
The test system of test [7] is Mus musculus. Nature of the test: Anti-inflammatory effect on inflammatory process I (exudation: pouch fluid weight) at a log dose of -1.5g/kg, ip, in adjuvant-induced air-pouch granuloma of mice(*).
The test system of test [8] is Mus musculus. Nature of the test: Anti-inflammatory effect on inflammatory process I (exudation: pouch fluid weight) at a log dose of -2.25g/kg, ip, in adjuvant-induced air-pouch granuloma of mice(*).
Test [9] has as its system Mus musculus. Nature of the test: Anti-inflammatory effect on inflammatory process I (exudation: pouch fluid weight) at a log dose of -3g/kg, ip, in adjuvant-induced air-pouch granuloma of mice(*).
The subject of test [10] is Mus musculus. Nature of the test: Anti-inflammatory effect on inflammatory process II (migration: inflammatory cell count) at a log dose of -1.5g/kg, ip, in adjuvant-induced air-pouch granuloma of mice(*).
Test [11] concerns Mus musculus. Nature of the test: Anti-inflammatory effect on inflammatory process II (migration: inflammatory cell count) at a log dose of -2.25g/kg, ip, in adjuvant-induced air-pouch granuloma of mice(*).
Test [12] concerns Mus musculus. Nature of the test: Anti-inflammatory effect on inflammatory process II (migration: inflammatory cell count) at a log dose of -3g/kg, ip, in adjuvant-induced air-pouch granuloma of mice(*).
Test [13] deals with Mus musculus. Nature of the test: Anti-inflammatory effect on inflammatory process III (angiogenesis: carmine content) at a log dose of -1.5g/kg, ip, in adjuvant-induced air-pouch granuloma of mice(*).
Test [14] relates to Mus musculus. Nature of the test: Anti-inflammatory effect on inflammatory process III (angiogenesis: carmine content) at a log dose of -2.25g/kg, ip, in adjuvant-induced air-pouch granuloma of mice(*).
The subject of test [15] is Mus musculus. Nature of the test: Anti-inflammatory effect on inflammatory process III (angiogenesis: carmine content) at a log dose of -3g/kg, ip, in adjuvant-induced air-pouch granuloma of mice(*).
Test [16] relates to Mus musculus. Nature of the test: Anti-inflammatory effect on inflammatory process IV (granuloma formation) at a log dose of -1.5g/kg, ip, in adjuvant-induced air-pouch granuloma of mice(*).
Test [17] concerns Mus musculus. Nature of the test: Anti-inflammatory effect on inflammatory process IV (granuloma formation) at a log dose of -2.25g/kg, ip, in adjuvant-induced air-pouch granuloma of mice(*).
Test [18] deals with Mus musculus. Nature of the test: Anti-inflammatory effect on inflammatory process IV (granuloma formation) at a log dose of -3g/kg, ip, in adjuvant-induced air-pouch granuloma of mice(*).
Test [19] deals with Mus musculus. Nature of the test: Inhibitory effect on inflammatory process I (exudation: pouch fluid weight) at a log dose of -5.25mol/kg, ip relative to hydrocortisone on adjuvant-induced air-pouch granulomas of mice.
The subject of test [20] is Mus musculus. Nature of the test: Inhibitory effect on inflammatory process I (exudation: pouch fluid weight) at a log dose of -5.6mol/kg, ip relative to hydrocortisone on adjuvant-induced air-pouch granulomas of mice.
For test [21], the system named is Mus musculus. Nature of the test: Inhibitory effect on inflammatory process I (exudation: pouch fluid weight) at a log dose of -6mol/kg, ip relative to hydrocortisone on adjuvant-induced air-pouch granulomas of mice.
For test [22], the system named is Mus musculus. Nature of the test: Inhibitory effect on inflammatory process II (migration: inflammatory cell count) at a log dose of -5.25mol/kg, ip relative to hydrocortisone on adjuvant-induced air-pouch granulomas of mice.
Test [23] relates to Mus musculus. Nature of the test: Inhibitory effect on inflammatory process II (migration: inflammatory cell count) at a log dose of -5.6mol/kg, ip relative to hydrocortisone on adjuvant-induced air-pouch granulomas of mice.
Test [24] concerns Mus musculus. Nature of the test: Inhibitory effect on inflammatory process IV (granuloma formation) at a log dose of -6mol/kg, ip relative to hydrocortisone on adjuvant-induced air-pouch granulomas of mice.
Test [25] deals with Mus musculus. Nature of the test: Weak anti-inflammatory and inflammatory effect on inflammatory process I (exudation: pouch fluid weight) at a log dose of -1.5g/kg, ip, in adjuvant-induced air-pouch granuloma of mice(**).
The test system of test [26] is Mus musculus. Nature of the test: Weak anti-inflammatory and inflammatory effect on inflammatory process I (exudation: pouch fluid weight) at a log dose of -2.2g/kg, ip, in adjuvant-induced air-pouch granuloma of mice(**).
Test [27] concerns Mus musculus. Nature of the test: Weak anti-inflammatory and inflammatory effect on inflammatory process II (migration: inflammatory cell count) at a log dose of -1.5g/kg, ip, in adjuvant-induced air-pouch granuloma of mice(**).
For test [28], the system named is Mus musculus. Nature of the test: Inhibitory effect on inflammatory process II (migration: inflammatory cell count) at a log dose of -6mol/kg, ip relative to hydrocortisone on adjuvant-induced air-pouch granulomas of mice.
Test [29] concerns Mus musculus. Nature of the test: Weak anti-inflammatory and inflammatory effect on inflammatory process II (migration: inflammatory cell count) at a log dose of -2.2g/kg, ip, in adjuvant-induced air-pouch granuloma of mice(**).
The test system of test [30] is Mus musculus. Nature of the test: Weak anti-inflammatory and inflammatory effect on inflammatory process II (migration: inflammatory cell count) at a log dose of -3g/kg, ip, in adjuvant-induced air-pouch granuloma of mice(**).
In test [31] the test system is Mus musculus. Nature of the test: Weak anti-inflammatory and inflammatory effect on inflammatory process III (angiogenesis: carmine content) at a log dose of -1.5g/kg, ip, in adjuvant-induced air-pouch granuloma of mice(**).
Test [32] relates to Mus musculus. Nature of the test: Weak anti-inflammatory and inflammatory effect on inflammatory process III (angiogenesis: carmine content) at a log dose of -2.2g/kg, ip, in adjuvant-induced air-pouch granuloma of mice(**).
For test [33], the system named is Mus musculus. Nature of the test: Weak anti-inflammatory and inflammatory effect on inflammatory process III (angiogenesis: carmine content) at a log dose of -3g/kg, ip, in adjuvant-induced air-pouch granuloma of mice(**).
The test system of test [34] is Mus musculus. Nature of the test: Weak anti-inflammatory and inflammatory effect on inflammatory process IV (granuloma formation) at a log dose of -1.5g/kg, ip, in adjuvant-induced air-pouch granuloma of mice(**).
Test [35] deals with Mus musculus. Nature of the test: Weak anti-inflammatory and inflammatory effect on inflammatory process IV (granuloma formation) at a log dose of -2.2g/kg, ip, in adjuvant-induced air-pouch granuloma of mice(**).
Test [36] has as its system Mus musculus. Nature of the test: Weak anti-inflammatory and inflammatory effect on inflammatory process IV (granuloma formation) at a log dose of -3g/kg, ip, in adjuvant-induced air-pouch granuloma of mice(**).
For test [37], the system named is Mus musculus. Nature of the test: Inhibitory effect on inflammatory process III (angiogenesis: carmine content) at a log dose of -5.25mol/kg, ip relative to hydrocortisone on adjuvant-induced air-pouch granulomas of mice.
The test system of test [38] is Mus musculus. Nature of the test: Inhibitory effect on inflammatory process III (angiogenesis: carmine content) at a log dose of -5.6mol/kg, ip relative to hydrocortisone on adjuvant-induced air-pouch granulomas of mice.
Test [39] deals with Mus musculus. Nature of the test: Weak anti-inflammatory and inflammatory effect on inflammatory process I (exudation: pouch fluid weight) at a log dose of -3g/kg, ip, in adjuvant-induced air-pouch granuloma of mice(**).
The species entered for test [40] is Mus musculus. Nature of the test: Inhibitory dose required against migration (inflammatory cell count) tested for antiinflammatory activity in mice(parentheses value represents 95% confidence limits). To be noted: read-out: ID50 (the source's name).

On to `C/C(=C\CC/C(C)=C/CC/C(C)=C/CC[C@@H]1[C@@]2(C)CC[C@H](O)C(C)(C)C2CC[C@@]1(C)O)CO` (stereo partly specified), for which the ED50 in [1] stood at 2.8 µmol/kg; in test [2], 1.75 µmol/kg; in [3] it was 5.83 µmol/kg. For the same compound, the Relative amount in test [4] is listed as 87%; in test [5] it was less than 50%; in [6], less than 75%; in test [7] it was less than 15%; in test [8] it was 35%; in test [9] it was 45%. Also, the Relative amount in test [10] is given as 60%; in test [11], 65%; in test [12] it was 80%; in test [13], less than 50%; in test [14], less than 52%; in [15] it was less than 63%. Besides, the Relative amount in test [16] is less than 55%; in [17] it was less than 65%; in [18], less than 70%; in [19], less than 5%; in test [20] it was less than 20%; in test [21], 70%. Moreover, the Relative amount is given as 115% in [22]; 90% in test [23]; 85% in [24]; 25% in [25]; 27% in [26]; 65% in test [27]. Further, the Relative amount worked out at 105% in [28]; 70% in test [29]; 100% in test [30]; 50% in test [31]; 65% in test [32]; 75% in [33]. The Relative amount in test [34] is listed as 60%; in test [35], 62%; in test [36], 80%; in [37] it was less than 30%; in test [38] it was less than 47%; in [39] it was 100%.
On to `C/C(=C\CC/C(C)=C/CC/C(C)=C/CC[C@@H]1[C@@]2(C)CCC(=O)C(C)(C)C2CC[C@@]1(C)O)CO` (stereo partly specified), for which the Relative amount in [4] was 105%; in [7] it was 60%; in test [8], 65%; in test [9] it was 75%; in test [10] it was 70%; in test [11] it was 85%. In addition, the Relative amount is given as 95% in test [12]; less than 50% in test [13]; 83% in test [14]; 83% in test [15]; less than 55% in test [16]; less than 68% in test [17]. Besides, the Relative amount is reported as 80% in test [18]; 90% in test [21]; 75% in test [24]; 250% in test [25]; 225% in test [26]; 175% in [27]. The Relative amount in test [28] was found to be 75%; in test [29], 170%; in test [30], 85%; in [31] it was 180%; in test [32], 185%; in test [33], 90%. Further, the Relative amount in test [34] worked out at 100%; in [35], 100%; in test [36] it was 65%; in test [39] it was 70%.
Consider `C[C@]12CCC(=O)C=C1CCC1[C@@H]2[C@@H](O)C[C@@]2(C)[C@H]1CC[C@]2(O)C(=O)CO` (single isomer, unassigned) [HYDROCORTISONE], for which the ED50 in test [1] was 22.1 µmol/kg; in [2] it was 6.31 µmol/kg; in test [3], 29.2 µmol/kg; in test [40] it was 11.7 µmol/kg.
